Measured values published in article PMC11899342, “Novel Triazeneindole Antibiotics: Synthesis and Hit-to-Lead Optimization” (International Journal of Molecular Sciences, 2025).

Key:
Type in all cases: in vitro ADME
[1] = Stability in human plasma; details: 37 °C, 1 μM
Method: For the experiment, human and rat plasma (SD) was thawed at room temperature and centrifuged for 5 min at 1500× g. Eucatropine (Sigma-Aldrich, USA), which is unstable in human and rat plasma, was used as a control compound.
For stability evaluation, 3 μL of 100X solutions of the tested or control compound (0.1 mM) was added to 297 μL of the corresponding plasma (prewarmed to 37 °C) to a final concentration of 1 μM. The plasma samples were incubated with the test and control compounds in the 0.65 mL microtubes at 37 °C and under 300 rpm rotation. After 15, 30, 60, and 240 min, 30 μL aliquots were taken into 1.1 mL microtubes with 180 μL of chilled acetonitrile with an internal standard of 200 ng/mL tolbutamide (Fluka). The tubes were stirred and kept at 4 °C for 15 min, then centrifuged at 1500× g for 10 min. A total of 200 μL of the supernatants was transferred into microtubes and stored at −70 °C until UPLC–MS/MS analysis.

[2] = Stability in rat liver microsomes; details: NADPH
Method: The liver metabolism of the substance was studied in the microsomal fractions of human and rat livers (XenoTech HMMCPL, RTMCPL, Kansas City, KS, USA) in the presence of the cofactor of the oxidative enzymes NADPH (AppliChem, Darmstadt, Germany).
The plate was incubated in a thermal shaker for 10 min at 400 rpm and 37 °C; then, 2.4 µL of 100× stocks of the tested substance was added into each well. A total of 30 µL of 8× cofactor solution was added to each experimental well (two replicates), 30 µL of deionized water was added to one control well, and all wells were mixed three times using a multichannel pipette with a volume of 100 µL. After mixing, the plate was placed in a thermal shaker at 400 rpm and 37 °C. The reactions were terminated at the following time points—0, 5, 10, 15, 20, and 30 min—by transferring 30 µL of the reaction mixture from the corresponding well to 1.1 mL microtubes and adding 180 µL of acetonitrile with internal standard 200 ng/mL tolbutamide (Fluka, Switzerland). To evaluate the stability of the substance in the microsomes without the cofactor, two aliquots were taken from the control well, and the reactions were terminated at 0 and 30 min time points. […] Then, the samples were centrifuged for 10 min at 1500× g, and 150 μL of the supernatant was taken for UPLC–MS/MS analysis.

[3] = Stability in artificial gastric juice; details: pH 1.2, pepsin, 37 °C, read-out: t1/2 in artificial gastric juice
Method: During ADME studies, the concentration of the compounds was analyzed using ultra-performance liquid chromatography (UPLC) coupled with tandem mass spectrometry (MS/MS) in the multiple reaction monitoring (MRM) mode. A quantitative analysis was performed using the internal standard (IS) calibration method, with tolbutamide as the IS.
The analyses were carried out on a system composed of an Agilent 1290 Infinity UPLC system (Agilent Technologies, USA) connected by ESI interface to a tandem quadrupole mass spectrometer QTRAP 6500 (AB Sciex Corp, Framingham, MA, USA). The separation was conducted on an YMC Triart C18 50 × 2 mm, 1.9 μm column, which was kept at 35 °C. The samples were cooled to 8 °C in an autosampler, and aliquots of 1 µL were delivered onto the column. Elution was performed using gradients of A (0.1% formic acid in water) and B (0.1% formic acid in acetonitrile), at the flow rate 0.35 mL/min. […] The declustering potential was 31 V for BX and 93 V for IS, resepectively; the collision energy was attuned to 17 eV; the collision cell exit potential was 10 V for BX and 8 V for IS MRM, respectively; the analyses were recorded for 305 → 234 (BX) and 271 → 172 (tolbutamide). […]

CCOC(=O)c1[nH]c2cc(F)ccc2c1/N=N/N1CCCC1 [BX-SI043, Ethyl (E)-6-fluoro-3-(pyrrolidin-1-yldiazenyl)-1H-indole-2-carboxylate]
metabolized in human plasma after 1 h ([1]; 1 h): about 50% | metabolized in human plasma after 4 h ([1]; 4 h): 97% | microsomal CLint ([2]; pH 7.4, rat liver microsomes): 2140 µL/min/mg | Remaining after 30 min ([2]; rat liver microsomes): 0.00% | t1/2 ([2]; rat liver microsomes, listed as ВХSI043): 1.30 min | half-life ([2]; rat, liver microsomes, pH 7.4, rat liver microsomes): 1.4 min | half-life at 1 µM [3]: < 10 min
